How the values were obtained:
[1] = target: T1, EP2 (Homo sapiens, UniProt P43116); experiment: EP2 cAMP assay; assay type: cell-based
Description: (§1) US 2007/0129552, incorporated by reference herein in its entirety, describes the methods used to obtain the in vitro data in the table below.

[2] = target: T1, EP2; experiment: EP2 flipr functional assay; assay type: cell-based
Description: as §1

[3] = target: T2, EP4 (Homo sapiens, UniProt P35408); experiment: EP4 flipr functional assay; assay type: cell-based
Description: as §1

[4] = target: T2, EP4; experiment: EP4 binding (Ki)
Description: as §1

[5] = target: T1, EP2; experiment: EP2 binding (Ki)
Description: as §1

T1 sequence (P43116 whole entry): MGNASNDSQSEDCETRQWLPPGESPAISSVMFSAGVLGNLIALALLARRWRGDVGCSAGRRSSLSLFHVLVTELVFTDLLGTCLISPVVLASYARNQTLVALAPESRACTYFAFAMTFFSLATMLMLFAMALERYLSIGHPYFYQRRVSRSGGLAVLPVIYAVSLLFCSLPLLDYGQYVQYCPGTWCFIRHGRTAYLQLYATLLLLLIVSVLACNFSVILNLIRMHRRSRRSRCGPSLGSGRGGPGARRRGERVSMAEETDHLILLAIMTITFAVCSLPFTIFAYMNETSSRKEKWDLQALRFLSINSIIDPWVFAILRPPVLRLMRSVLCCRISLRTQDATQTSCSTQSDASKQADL
T2 sequence (P35408 whole entry): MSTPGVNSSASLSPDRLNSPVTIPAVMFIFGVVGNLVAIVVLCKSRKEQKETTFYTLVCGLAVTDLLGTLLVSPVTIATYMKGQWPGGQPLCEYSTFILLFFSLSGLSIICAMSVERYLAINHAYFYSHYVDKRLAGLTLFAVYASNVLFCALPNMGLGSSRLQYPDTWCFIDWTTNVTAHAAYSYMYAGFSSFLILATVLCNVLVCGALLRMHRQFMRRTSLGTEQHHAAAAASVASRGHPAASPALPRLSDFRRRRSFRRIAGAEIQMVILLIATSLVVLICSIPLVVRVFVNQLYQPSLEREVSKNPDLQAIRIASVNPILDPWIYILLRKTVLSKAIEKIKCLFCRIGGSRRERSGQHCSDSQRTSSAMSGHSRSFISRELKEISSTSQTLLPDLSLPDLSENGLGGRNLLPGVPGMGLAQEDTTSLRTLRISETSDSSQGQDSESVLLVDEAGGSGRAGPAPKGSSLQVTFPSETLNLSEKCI

EC50 [1]: 3 nM
EC50 [2]: 998 nM
EC50 [3]: > 10000 nM
Ki [4]: 2660 nM
Ki [5]: 23 nM
Compound: CCCCCCc1ccc(-c2cccn2CCCc2ccc(C(=O)O)s2)cc1 [Example 1, 5-(3-(2-(4-hexylphenyl)-1H-pyrrol-1-yl)propyl)thiophene-2-carboxylic acid]

Reference: patent US9637477B2, “Therapeutic substituted pyrroles” (Allergan, Inc., priority 2014, dated 2017)
